Experimental data from patent publication US4444690A, “Technetium chelates” (priority 1982, dated 1984).
Entries after “also recorded” stand apart in the source; their conditions may differ. Read-outs that look alike come from different tables or passages of the source.

What was measured:
[1] = mice, mean of 6
Method: The time course of organ distribution was determined in groups of six Hal Cr female albino mice. They were injected with 0.10 ml (0.5 uCi) of the preparation. For comparison purposes, 0.2 uCi OIH was added to each injection. The mice were placed in metabolic cages for the collection of excreted urine. At indicated intervals after injection, the urethra was ligated and the mice killed with chloroform vapor.

[2] = Organ biodistribution time course of Tc-CO2-DADS components in mice (Table 1); format: in vivo, Hal Cr female albino mice; conditions: mice; for Blood / Intestines / Kidneys / Liver / Stomach / Urine: mean of 6; for renal excretion / clearance in words: comparison with OIH or component A
Method: The time course of organ distribution was determined in groups of six Hal Cr female albino mice. They were injected with 0.10 ml (0.5 uCi) of the preparation. For comparison purposes, 0.2 uCi OIH was added to each injection. The mice were placed in metabolic cages for the collection of excreted urine. At indicated intervals after injection, the urethra was ligated and the mice killed with chloroform vapor. The organs were removed and counted in a dual channel counter with correction for I-131 crossover into the Tc-99m channel.

[3] = Blood disappearance rates in rats (FIG. 3); format: in vivo, male Sprague-Dawley rats; conditions: rats; for blood disappearance in words: FIG. 3
Source text: These determinations were made in male Sprague-Dawley rats.

[4] = for renal excretion (urine appearance) in words: rabbits, FIG. 4
Method: (§1) Organ biodistribution and acute toxicity studies were carried out in mice, blood disappearance and bile appearance rates were determined by sampling of bood or bile in rats, and renal excretion rates of the two Tc-2,3-bis(mercaptoacetamido)propanoic acid components, Tc-DTPA, and OIH were determined in rabbits because of greater ease of urine sampling. The HPLC-purified Tc-2,3-bis(mercaptoacetamido)propanoate components were used directly except for dilution as necessary. In general HPLC collected volumes were 1 to 1.5 ml and were not diluted for rabbit studies, were diluted 2- to 10-fold for rat studies and were diluted about 20-fold for mouse studies. In most cases determinations were made with simultaneous administration of OIH.
The rate of renal excretion was measured in New Zealand albino male rabbits. They were anesthetized with ketamine and xylazine and placed on a gamma camera provided with digital storage. After injection of 0.5 to 1 mCi of the Tc-99m complex containing 0.5μCi of OIH, images were collected on tape for 45 minutes. At 35 minutes after injection, urine was expelled from the bladder and the percentage of injected dose contained in the expelled urine was determined. Accumulation of bladder radioactivity was monitored by placing a region of interest over the bladder. The drop in the radioactivity in the bladder after expelling the urine sample (50-80% of the bladder radioactivity) allowed calibration of the bladder time-activity curve in terms of percent injected dose.

plasma proteins = assay: Plasma protein binding, ultrafiltration; format: in vitro ADME
Method: Studies of protein binding were carried out in plasma using an ultrafiltration method described at J.Nucl.Med. 22, 258-263, 1981.

[5] = in vivo; cited from earlier work
[6] = rats, 90 minutes; for biliary excretion of radioactivity in the absence of renal function: renal pedicles ligated
Method: as §1
These determinations were made in male Sprague-Dawley rats. For blood studies the animals were anesthetized with sodium pentobarbital, a line was placed in a femoral vein for tracer injections and hydration, and another was placed in a carotid artery for blood sampling. About 20μCi (0.25 ml) each of OIH and Tc-99m complex under study were injected and 0.1 to 0.2 ml samples of blood were taken at 1, 2, 3, 4, 5, 6, 9, 12, 15, 20, 25, 30, 45, 60, 75, and 90 minutes after injection. Biliary excretion in the absence of renal function was determined by cannulating the common bile duct, ligating the renal pedicles, and collecting bile in 4-minute fractions for 90 minutes.

renal tubular transport = conditions: mouse, in vivo
Method: A dose of 50 mg/kg of probenicid was given 10 minutes prior to injection of radiochemicals. OIH was injected simultaneously.
*Values are mean and S.E.M. percent injected dose at 10 min. post

[7] = 120 min post injection, 120 min
[8] = 10 min post injection, listed as Tc--CO2 DADS--B
[9] = 120 min post injection, listed as Tc--CO2 DADS--B
[10] = 5 min post injection, listed as Tc--CO2 --DADS--A
[11] = 5 min post injection, listed as component A
[12] = 10 min post injection, listed as Tc--CO2 --DADS--A
[13] = 30 min post injection, listed as Tc--CO2 --DADS--A
[14] = 120 min post injection, listed as Tc--CO2 --DADS--A
[15] = animals with normal renal function

O=C(O)C1C(C(=O)O)[N]2C(=O)C[S][99Tc-]23(=[O])[S]CC(=O)[N]13 (single isomer, unassigned) [Tc--99m--2,3--(MERCAPTOACETAMIDO) SUCCINATE Component B] [Tc-99m chelate of 2,3-bis(mercaptoacetamido)succinic acid]
Blood ([1]; 10 min post injection): 16.21 | Intestines ([1]; 10 min post injection): 2.88 | Kidneys ([1]; 10 min post injection): 3.43 | Liver ([1]; 10 min post injection): 7.06 | Stomach ([1]; 10 min post injection): 0.53 | Urine ([1]; 10 min post injection, 10 min): 19.32 | Blood ([1]; 120 min post injection): 0.87 | Intestines ([1]; 120 min post injection): 8.85 | Kidneys ([1]; 120 min post injection): 0.65 | Liver ([1]; 120 min post injection): 2.33 | Stomach ([1]; 120 min post injection): 0.49 | Urine [1, 7]: 66.92

O=C(O)C1C(C(=O)O)[N]2C(=O)C[S][99Tc-]23(=[O])[S]CC(=O)[N]13 (single isomer, unassigned) [Tc--99m--2,3--(MERCAPTOACETAMIDO) SUCCINATE Component A] [Tc-99m chelate of 2,3-bis(mercaptoacetamido)succinic acid]
Blood ([1]; 10 min post injection): 10.13 | Intestines ([1]; 10 min post injection): 2.16 | Kidneys ([1]; 10 min post injection): 3.41 | Liver ([1]; 10 min post injection): 5.80 | Stomach ([1]; 10 min post injection): 0.40 | Urine ([1]; 10 min post injection, 10 min): 32.32 | Blood ([1]; 120 min post injection): 0.44 | Intestines ([1]; 120 min post injection): 0.30 | Kidneys ([1]; 120 min post injection): 7.44 | Liver ([1]; 120 min post injection): 3.17 | Stomach ([1]; 120 min post injection): 0.03 | Urine [1, 7]: 77.73

O=C(O)C1C[N]2C(=O)C[S][99Tc-]23(=[O])[S]CC(=O)[N]13 (single isomer, unassigned) [Tc-2,3-bis(mercaptoacetamido)propanoate-B] [Tc-99m-2,3-bis(mercaptoacetamido)propanoate]
biliary excretion in words [2]: Negligible biliary excretion | Blood [2, 8]: 3.64 percent injected dose | Intestines [2, 8]: 1.00 percent injected dose | Kidneys [2, 8]: 2.87 percent injected dose | Liver [2, 8]: 14.83 percent injected dose | Stomach [2, 8]: 0.13 percent injected dose | Urine ([2]; 10 min post injection, listed as Tc--CO2 DADS--B, 10 min): 51.94 percent injected dose | Blood [2, 9]: 0.14 percent injected dose | Intestines [2, 9]: 0.21 percent injected dose | Kidneys [2, 9]: 0.14 percent injected dose | Liver [2, 9]: 3.71 percent injected dose | Stomach [2, 9]: 0.02 percent injected dose | Urine ([2]; 120 min post injection, listed as Tc--CO2 DADS--B, 120 min): 79.16 percent injected dose | renal excretion / clearance in words ([2]; listed as Tc-2,3-bis(mercaptoacetamido)proponoate-B): more slowly cleared; also recorded: renal excretion was only slightly lower than OIH determined simultaneously | blood disappearance in words [3]: faster than Tc-DTPA, was significantly slower than Tc-2,3-bis(mercaptoacetamido)propanoate-A | blood disappearance in words ([3]; listed as component B): significantly faster than Tc-DTPA | renal excretion (urine appearance) in words [4]: significantly lower at early times, but similar to component A and OIH at 35 minutes | renal excretion (urine appearance) in words ([4]; listed as Component B): always faster than Tc-DTPA, but significantly slower than OIH or component A at early times | binding to plasma proteins (plasma proteins; 10 min): 87% | binding to plasma proteins (plasma proteins; 0.5 h): 90%

Tc-99m diethylenetriaminepentaacetic acid [Tc-99m DTPA]
extraction efficiency [5]: ≤ 20%

O=C(O)C1C[N]2C(=O)C[S][99Tc-]23(=[O])[S]CC(=O)[N]13 (single isomer, unassigned) [Tc-2,3-bis(mercaptoacetamido)propanoate-A] [Tc-99m-2,3-bis(mercaptoacetamido)propanoate]
Blood ([2]; 5 min post injection): 8.19 percent injected dose | Intestines ([2]; 5 min post injection): 1.61 percent injected dose | Stomach ([2]; 5 min post injection): 0.24 percent injected dose | Urine ([2]; 5 min post injection, listed as Tc-2,3-bis(mercaptoacetmido)propanoate-A, 5 min): 45 percent injected dose | Kidneys [2, 10]: 5.61 percent injected dose | Liver [2, 10]: 7.81 percent injected dose | Urine ([2]; 5 min post injection, listed as Tc--CO2 --DADS--A, 5 min): 45.52 percent injected dose | Kidneys [2, 11]: 5.6 percent injected dose | Liver [2, 11]: about 8 percent injected dose | Blood [2, 12]: 3.10 percent injected dose | Intestines [2, 12]: 0.82 percent injected dose | Kidneys [2, 12]: 2.23 percent injected dose | Liver [2, 12]: 4.26 percent injected dose | Stomach [2, 12]: 0.11 percent injected dose | Urine ([2]; 10 min post injection, listed as Tc--CO2 --DADS--A, 10 min): 67.97 percent injected dose | Blood ([2]; 15 min post injection): 1.95 percent injected dose | Intestines ([2]; 15 min post injection): 0.86 percent injected dose | Kidneys ([2]; 15 min post injection): 1.30 percent injected dose | Liver ([2]; 15 min post injection): 3.79 percent injected dose | Stomach ([2]; 15 min post injection): 0.09 percent injected dose | Urine ([2]; 15 min post injection): 75.08 percent injected dose | Intestines ([2]; 30 min post injection): 1.05 percent injected dose | Liver ([2]; 30 min post injection): 1.34 percent injected dose | Stomach ([2]; 30 min post injection): 0.07 percent injected dose | Urine ([2]; 30 min post injection): 80.82 percent injected dose | Kidneys ([2]; 30 min post injection, listed as Tc-2,3-bis(mercaptoacetmido)propanoate-A): less than 1 percent injected dose | Blood [2, 13]: 0.59 percent injected dose | Kidneys [2, 13]: 0.51 percent injected dose | Blood ([2]; 30 min post injection, listed as component A): 0.6 percent injected dose | Blood [2, 14]: 0.21 percent injected dose | Intestines [2, 14]: 1.46 percent injected dose | Kidneys [2, 14]: 0.25 percent injected dose | Liver [2, 14]: 0.78 percent injected dose | Stomach [2, 14]: 0.04 percent injected dose | Urine ([2]; 120 min post injection, listed as Tc--CO2 --DADS--A, 120 min): 86.57 percent injected dose | Liver ([2]; 120 min post injection, listed as component A): less than 1 percent injected dose | radioactivity seen in the intestine ([2]; at any time interval): ≤ 1.6% | renal excretion / clearance in words [2]: slightly higher than or comparable to OIH in renal excretion | time at which radioactivity remaining in the blood was 2% [3]: 36 min | time at which radioactivity remaining in the blood was 5% [3]: 16.5 min | blood disappearance in words [3]: higher initial value resulted in comparable curve slopes | blood disappearance in words ([3]; listed as component A): comparable to or slightly greater than that of OIH | rate of renal excretion in words [4, 15]: equivalent to OIH | specificity for renal excretion [4, 15]: nearly complete | renal excretion (urine appearance) in words [4]: slightly greater extent than OIH although differences were only significant at 35 minutes (p<0.05) | renal excretion (urine appearance) in words ([4]; listed as Component A): slightly faster than OIH from 10 minutes onward | protein binding in words (plasma proteins): high degree of protein binding | binding to plasma proteins (plasma proteins; 10 min): 93% | binding to plasma proteins (plasma proteins; 0.5 h): 94% | radioactivity in muscle ([6]; absence of renal function): 22% | radioactivity in the blood ([6]; absence of renal function): 21% | radioactivity in the kidneys ([6]; absence of renal function): 1% | radioactivity in the liver ([6]; absence of renal function): 4% | radioactivity in the spleen ([6]; absence of renal function): 0.1% | radioactivity in the stomach ([6]; absence of renal function): 0.3% | biliary excretion of radioactivity in the absence of renal function [6]: less than 3% | biliary excretion of radioactivity in the absence of renal function ([6]; listed as Tc-99m-2,3-bis(mercaptoacetamido)propanoate-A): 3.1% | biliary excretion with probenicid, in words (renal tubular transport): not increased significantly | liver radioactivity with probenicid, in words (renal tubular transport): Biliary excretion was not increased significantly for component A, but liver radioactivity was | Blood (renal tubular transport; 10 min): 3.37 percent injected dose | Intestines (renal tubular transport; 10 min): 0.77 percent injected dose | Kidneys (renal tubular transport; 10 min): 2.53 percent injected dose | Liver (renal tubular transport; 10 min): 4.21 percent injected dose
